According to patent publication US10738101B2, “Method for selecting odor-controlling substance” (Kao Corporation, priority 2015, dated 2020):

Key:
OR5AN1 = biological target: T1, OR5AN1 (Homo sapiens, UniProt Q8NGI8); assay: Luciferase reporter gene assay, OR5AN1-expressing HEK293 cells; type: cell-based; settings: 0.3 μM to 100 μM, vs Mock cells, FIG. 3
T1 construct: expressed in transfected cells; host or cells: HEK293
T1 sequence (Q8NGI8 1-311): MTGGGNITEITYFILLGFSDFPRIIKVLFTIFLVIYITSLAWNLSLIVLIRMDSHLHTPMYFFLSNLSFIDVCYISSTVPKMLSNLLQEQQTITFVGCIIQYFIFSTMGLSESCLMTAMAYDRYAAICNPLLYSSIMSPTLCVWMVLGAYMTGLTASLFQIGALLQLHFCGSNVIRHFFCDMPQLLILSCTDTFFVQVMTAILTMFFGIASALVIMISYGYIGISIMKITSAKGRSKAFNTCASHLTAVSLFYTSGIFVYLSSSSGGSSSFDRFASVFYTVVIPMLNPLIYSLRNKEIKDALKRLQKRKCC
Text: (§1) On the basis of sequence information registered in GenBank, genes respectively encoding 370 human olfactory receptors shown in Tables 1-1 and 1-2 and genes respectively encoding the human olfactory receptors OR5AN1, OR10G4 and OR9Q2 (respectively set forth in SEQ ID NOS: 1, 3 and 5) were cloned. Each of the genes was cloned by the PCR using human genomic DNA person (G1521: Promega) as a template. Each gene amplified by the PCR was incorporated into a pENTR vector (Invitrogen) in accordance with the instruction, and was recombined to NotI and AscI sites produced downstream from a Flag-Rho tag sequence on a pME18S vector by using NotI and AscI sites present on the pENTR vector.
(§2) In 1) of Example 1, HEK293 cells on which the 370 human olfactory receptors were respectively expressed were produced. A reaction solution having a composition shown in Table 2 was prepared and allowed to stand still in a clean bench for 15 minutes, and the resultant was added by 4.4 μL per well in a 384-well plate (BioCoat). Subsequently, the HEK293 cells (20×10^4 cells/cm^2) were seeded by 40 μL per well, and the resultant was cultured for 24 hours in an incubator kept at 37° C. and 5% CO2.
(§3) In 2) of Example 1 and Examples 2 and 3, HEK293 cells in which the human olfactory receptor OR5AN1, OR10G4, OR9Q2 or OR1A1 was expressed were produced. A reaction solution having a composition shown in Table 3 was prepared and allowed to stand still in a clean bench for 15 minutes, and the resultant was added by 10 μL per well in a 96-well plate (BioCoat). Subsequently, the HEK293 cells (3×10^5 cells/cm^2) were seeded by 90 μL per well, and the resultant was cultured for 24 hours in an incubator kept at 37° C. and 5% CO2. Cells obtained under conditions for not expressing the olfactory receptor (Mock) were also prepared to be used as a control, and were used similarly in an experiment.
(§4) The olfactory receptor expressed on the HEK293 cells increases the intracellular cAMP amount by activating adenylate cyclase in conjugation with intracellular Gαs. In the measurement of odor response in this study, luciferase reporter gene assay for monitoring the increase of the intracellular cAMP amount as a luminescence value derived from a firefly luciferase gene (fluc2P-CRE-hygro) was employed. Besides, a fused Renilla luciferase (hRluc-CMV) gene was simultaneously transferred downstream of the CMV promoter, so as to be used as an internal standard for correcting the gene transfer efficiency or an error in the number of cells. For measuring the activity of the luciferase, Dual-Glo(™) Luciferase Assay System (Promega) was used, and the measurement was performed in accordance with the operation instruction of the product. Under each of various stimulation conditions, a value fLuc/hRluc obtained by dividing a firefly luciferase-derived luminescence value by a Renilla luciferase-derived luminescence value was calculated. A value obtained by dividing a value fLuc/hRluc induced by stimulation with an odorous substance by a value fLuc/hRluc of a cell not stimulated with the odorous substance was obtained as fold increase, which was used as an index of the response intensity. A dose-response curve was analyzed using Graph Pad Prism.
(§5) The medium was removed from each of the cultures of the olfactory receptor expressing cells produced according to Reference Example 1, and an odorous substance (muscone, guaiacol or p-cresol) was added thereto. A DMEM medium (Nacalai) containing muscone or guaiacol was added to a 384-well plate containing the culture by 30 μL per well (to a final concentration of muscone of 100 μM and of guaiacol of 1 mM). Alternatively, a CD293 medium (Invitrogen) containing p-cresol was added to a 96-well plate containing the culture by 75 μL per well (to a final concentration of 1 mM). […]

odor of p-cresol = assay: Sensory test of cross-adaptation, target odor p-cresol; type: in vivo, human; settings: panelists, test sample smelled before target sample, FIG. 6C
Method: (§6) The cross-adaptation effect induced by the odorous substance evaluated in Example 2 was estimated by a sensory test. A glass bottle (No. 11, manufactured by Hakuyo Glass Co., Ltd., capacity: 110 mL) was charged with a target odorous substance to be used as a target sample. As the target odorous substance, muscone, guaiacol or p-cresol was used. As the muscone, a cotton ball soaked with 1 mg of muscone was used. As the guaiacol and p-cresol, 1 mL of a mineral oil (Sigma-Aldrich) solution in a concentration of 10 ppm was used. In a similar manner, a glass bottle was charged with a test substance to be used as a test sample. As the test sample, 5 mg of an ethyl vanillin powder, or 1 mL of a mineral oil (Sigma-Aldrich) solution of p-cresyl acetate, p-cresyl isobutyrate or p-methyl quinoline prepared to a concentration of 1,000 ppm was used.
(§7) The sensory test was performed by a single blind method by five to eight panelists. The target sample was first presented to each panelist, who was caused to replay on the odor intensity. Next, the test sample was presented for 2 minutes or until the odor could not be perceived. Thereafter, the target sample was presented again, and the panelist was caused to replay on the odor intensity. This series of operations was defined as one set, and the sensory test was carried out with four sets per day per panelist set as the upper limit. A recess of at least 10 minutes or more was provided between the sets.
The panelist was caused to plot the estimated intensity of the target odor on a straight line of 9.5 cm with both ends respectively provided with criteria “No odor” and “Strong odor”. A distance (A) between the position of the target odor intensity plotted in the initial estimate and the end of “No odor”, and a distance (B) between the position of the target odor intensity plotted in the second estimate and the end of “No odor” were obtained, so as to calculate percentage odor intensity of the initial estimate [B/A*100−100]. As this value is smaller, the intensity of the target odor perceived in the second estimate is suppressed stronger as compared with that in the initial estimate, namely, stronger cross-adaptation is induced. If this value is −100%, it means that the target odor was not perceived at all in the second estimate.

OR9Q2 = biological target: T2, OR9Q2 (Homo sapiens, UniProt Q8NGE9); assay: Luciferase reporter gene assay, OR9Q2-expressing HEK293 cells; type: cell-based; settings: for responsiveness of OR9Q2 (fold increase): FIG. 2, 5B, 5C
T2 construct: expressed in transfected cells; host or cells: HEK293
T2 sequence (Q8NGE9 1-314): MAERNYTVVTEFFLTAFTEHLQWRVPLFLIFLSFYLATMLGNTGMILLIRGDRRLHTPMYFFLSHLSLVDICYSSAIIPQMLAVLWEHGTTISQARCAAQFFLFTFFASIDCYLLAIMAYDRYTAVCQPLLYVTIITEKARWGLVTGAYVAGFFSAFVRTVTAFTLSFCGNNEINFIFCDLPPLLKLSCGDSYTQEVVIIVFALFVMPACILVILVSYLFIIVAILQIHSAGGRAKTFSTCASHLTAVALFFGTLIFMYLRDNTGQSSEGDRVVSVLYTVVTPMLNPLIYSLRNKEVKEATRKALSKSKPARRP
Text: as §1, §2, §3, §4, §5

OR10G4 = biological target: T3, OR10G4 (Homo sapiens, UniProt Q8NGN3); assay: Luciferase reporter gene assay, OR10G4-expressing HEK293 cells; type: cell-based; settings: for responsiveness of OR10G4 (fold increase): FIG. 5A, 5C
T3 construct: expressed in transfected cells; host or cells: HEK293
T3 sequence (Q8NGN3 1-311): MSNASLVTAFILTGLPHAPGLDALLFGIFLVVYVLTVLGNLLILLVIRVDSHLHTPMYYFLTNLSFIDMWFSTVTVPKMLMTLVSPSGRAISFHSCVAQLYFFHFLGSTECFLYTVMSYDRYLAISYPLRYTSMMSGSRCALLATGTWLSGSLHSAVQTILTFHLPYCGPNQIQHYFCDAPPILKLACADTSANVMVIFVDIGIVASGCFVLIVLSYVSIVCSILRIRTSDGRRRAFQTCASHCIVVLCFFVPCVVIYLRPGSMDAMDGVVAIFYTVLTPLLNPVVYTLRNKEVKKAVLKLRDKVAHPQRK
Text: as §1, §2, §3
as §4, with “For measuring the activity of the luciferase, Dual-Glo(™) Luciferase Assay System (Promega) was used, and the measurement was performed in accordance with the operation instruction of the product.” left out, “A value obtained by dividing a value fLuc/hRluc induced by stimulation with an odorous substance by a value fLuc/hRluc of a cell not stimulated with the odorous substance was obtained as fold increase, which was used as an index of the response intensity.” left out, “Prism. […]” for “Prism.”

odor of guaiacol = assay: Sensory test of cross-adaptation, target odor guaiacol; type: in vivo, human; settings: panelists, test sample smelled before target sample, FIG. 6B
Method: as §6
as §7, with “A recess of at least 10 minutes or more was provided between the sets.” left out

OR1A1 = biological target: T4, OR1A1 (Homo sapiens, UniProt Q9P1Q5); assay: Luciferase reporter gene assay, OR1A1-expressing HEK293 cells; type: cell-based; settings: 0.3 μM to 100 μM, vs Mock cells, FIG. 4
T4 construct: expressed in transfected cells; host or cells: HEK293
T4 sequence (Q9P1Q5 1-309): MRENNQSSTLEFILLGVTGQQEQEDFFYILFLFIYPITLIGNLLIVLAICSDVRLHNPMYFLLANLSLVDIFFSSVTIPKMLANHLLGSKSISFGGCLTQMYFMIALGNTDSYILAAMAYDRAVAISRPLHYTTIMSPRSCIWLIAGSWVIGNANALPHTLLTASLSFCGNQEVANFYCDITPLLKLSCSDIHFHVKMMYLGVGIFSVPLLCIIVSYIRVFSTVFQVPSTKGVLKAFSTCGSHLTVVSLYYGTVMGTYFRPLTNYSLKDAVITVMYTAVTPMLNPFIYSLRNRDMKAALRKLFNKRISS
Text: as §1, §2
In 2) of Example 1 and Examples 2 and 3, HEK293 cells in which the human olfactory receptor OR5AN1, OR10G4, OR9Q2 or OR1A1 was expressed were produced. […]
The olfactory receptor expressed on the HEK293 cells increases the intracellular cAMP amount by activating adenylate cyclase in conjugation with intracellular Gαs. In the measurement of odor response in this study, luciferase reporter gene assay for monitoring the increase of the intracellular cAMP amount as a luminescence value derived from a firefly luciferase gene (fluc2P-CRE-hygro) was employed. […] Under each of various stimulation conditions, a value fLuc/hRluc obtained by dividing a firefly luciferase-derived luminescence value by a Renilla luciferase-derived luminescence value was calculated. […] A dose-response curve was analyzed using Graph Pad Prism. […]

muscone odor = assay: Sensory test of cross-adaptation, target odor muscone; type: in vivo, human; settings: panelists, test sample smelled before target sample, FIG. 6A
Method: as §6, §7
The panelist was caused to plot the estimated intensity of the target odor on a straight line of 9.5 cm with both ends respectively provided with criteria “No odor” and “Strong odor”. A distance (A) between the position of the target odor intensity plotted in the initial estimate and the end of “No odor”, and a distance (B) between the position of the target odor intensity plotted in the second estimate and the end of “No odor” were obtained, so as to calculate percentage odor intensity of the initial estimate [B/A*100−100]. […]

## O=C1CCCCCCCCCCCCCCO1 [Exaltolide (R), 16-oxacyclohexadecan-1-one]
OR5AN1
  activation of OR5AN1 response (fold increase): activating the response

## Cc1ccc2ncccc2c1 [p-methyl quinoline, 6-methyl quinoline]
Odor of p-cresol
  cross-adaptation of p-cresol odor induced by test substance: induced
OR9Q2
  responsiveness of OR9Q2 (fold increase): have responsiveness

## COc1ccccc1O [guaiacol, 2-methoxyphenol]
OR10G4
  responsiveness of OR10G4 (fold increase): had responsiveness
OR10G4; screen of 370 human olfactory receptors, guaiacol 1 mM, FIG. 1
  responsiveness of OR10G4 among 370 olfactory receptors (response intensity, fold increase): highest responsiveness

## CCOc1cc(C=O)ccc1O [ethyl vanillin, 3-ethoxy-4-hydroxybenzaldehyde]
Odor of guaiacol
  cross-adaptation of guaiacol odor induced by test substance: induced
OR10G4
  responsiveness of OR10G4 (fold increase): had responsiveness

## CC1CC=CCCCCCCCCCC(=O)C1 (centres unmarked) [Muscenone delta, 3-methyl-5-cyclopentadecen-1-one]
OR5AN1
  activation of OR5AN1 response (fold increase): activating the response

## CC/C=C\CCO [Cis-3-hexenol]
OR5AN1
  activation of OR5AN1 response (fold increase): did not induce the response
OR1A1
  activation of OR1A1 response (fold increase): activated
Muscone odor
  cross-adaptation of muscone odor induced by test substance: did not induce the cross-adaptation

## O=C1CCCCC=CCCCCCCCCCO1 [Ambrettolide, 17-oxacycloheptadec-6-en-1-one]
OR5AN1
  activation of OR5AN1 response (fold increase): did not induce the response
Muscone odor
  cross-adaptation of muscone odor induced by test substance: did not induce the cross-adaptation

## Cc1c([N+](=O)[O-])c(C)c([N+](=O)[O-])c(C(C)(C)C)c1[N+](=O)[O-] [Musk xylol, 1-tert-butyl-3,5-dimethyl-2,4,6-trinitrobenzene]
OR5AN1
  activation of OR5AN1 response (fold increase): activating the response

## CC(C)(O)CCCC1=CCC(C=O)CC1 [Lyral (R), 4-(4-hydroxy-4-methyl-pentyl)-cyclohex-3-enecarbaldehyde]
OR5AN1
  activation of OR5AN1 response (fold increase): did not induce the response

## O=C1CCCCCCC=CCCCCCCC1 [Globanone, cyclohexadec-8-en-1-one]
OR5AN1
  activation of OR5AN1 response (fold increase): activating the response

## Cc1ccc(OC(=O)C(C)C)cc1 [p-cresyl isobutyrate, (4-methylphenyl)2-methylpropanoate]
Odor of p-cresol
  cross-adaptation of p-cresol odor induced by test substance: induced
OR9Q2
  responsiveness of OR9Q2 (fold increase): have responsiveness

## CC(=O)Oc1ccc(C)cc1 [p-cresyl acetate, (4-methylphenyl)acetate]
Odor of p-cresol
  cross-adaptation of p-cresol odor induced by test substance: induced
OR9Q2
  responsiveness of OR9Q2 (fold increase): have responsiveness

## OCCc1ccccc1 [phenyl ethyl alcohol (PEA), 2-phenylethanol]
OR5AN1
  activation of OR5AN1 response (fold increase): did not induce the response
OR1A1
  activation of OR1A1 response (fold increase): activated
Muscone odor
  cross-adaptation of muscone odor induced by test substance: did not induce the cross-adaptation

## Cc1ccc(O)cc1 [p-cresol, p-Cresol]
OR9Q2
  responsiveness of OR9Q2 (fold increase): have responsiveness
OR9Q2; different concentrations, FIG. 2
  concentration dependency of OR9Q2 response: showed response to p-cresol dependently on the concentration
OR9Q2; screen of 370 human olfactory receptors, p-cresol 1 mM, FIG. 1
  responsiveness of OR9Q2 among 370 olfactory receptors (response intensity, fold increase): highest responsiveness
